Test results reported in US12685725B2, “Pridopidine for the treatment of mitochondrial-associated diseases and disorders and endoplasmic reticulum (ER) stress” (PRILENIA NEUROTHERAPEUTICS LTD., priority 2019, dated 2026).
Read-outs that look alike come from different tables or passages of the source.

Legend:
[1] = system: WT and YAC128 striatal neurons; conditions: 1 μM, 24 h
Procedure: To obtain pure cortical and striatal neurons, tissue was micro-dissected in HBSS supplemented with 0.3% fatty acid free BSA (Sigma-Aldrich, catalog no: A8806). Tissue from embryos with the same genotype were pooled and digested with 0.003% trypsin in HBSS, then mechanically digested. […] (Sigma-Aldrich, catalog no: T9128) was used to block the trypsin. […] Cultures were incubated at 37° C. with 5% CO2. After 3 days in vitro (DIV) half of the medium was replaced with fresh supplemented Neurobasal medium containing 5-fluoro-2′-deoxyuridine (5-FdU, 5 μM final concentration in the medium; Sigma-Aldrich, catalog no: F0503) to reduce dividing non-neuronal cells. At DIV 7 half of the medium was again replaced with fresh, and cells were used at DIV12.
The ultrathin sections were prepared using Leica Ultracut UCT (Leica, Vienna, Austria) and contrasted with uranyl acetate and lead citrate. […] All mitochondria of 6-7 different cells were snapped per condition and per independent experiment. Number of mitochondria-ER contacts sites (MERCS), MERCS length, ER and mitochondria profile areas, ER width and mitochondria aspect ratio (the ratio between the major and minor axes of mitochondria) were quantified. Number of MERCS per mitochondria was obtained by dividing number of MERCS per number of mitochondria profiles. Percentage of mitochondria surface covered by ER was measured by dividing the MERCS length by mitochondria perimeter and multiplying by 100. MERCS were considered when the distance between ER and mitochondria <40 nm.

[2] = system: WT and YAC128 cortical/striatal co-cultures; conditions: 24 h
Procedure: Oxygen consumption rate (OCR) in WT and hemizygous YAC128 cortical/striatal co-cultures and NSCs was measured using Seahorse XFe-24/96 flux analyzers (Seahorse Bioscience, Billerica, MA, USA) following the manufacturer's instructions. […] Pridopidine (0.1, 1 and/or 5 μM) was added, when indicated in the graphs, 24 h before the experiment. The sensor cartridge plate was incubated with immersed sensors in a non-CO2 incubator at 37° C. for ~16 h (overnight). […] The cell medium was aspirated gently to avoid disturbing cell monolayers. […] Accordingly, mitochondrial basal respiration, maximal respiration and ATP production was automatically calculated and recorded by the Seahorse software. Data was normalized for protein levels.

[3] = system: mitochondrial complexes II, III and IV; conditions: 30 mg/kg/day oral gavage 45 days
Procedure: (§1) 1.5-month-old WT and hemizygous YAC128 mice (males and females in equal proportion) were divided into four groups. […] Mice were divided 4 animals per cage enriched in corn-husk nesting material and paper rolls, each cage representing one individual experiment, for a total of 9 animals per group. Pridopidine was dissolved in deionized sterile water. Animals were weighed every week and the volume of treatment adjusted accordingly. Mice were behaviorally tested in rotarod immediately before commencing treatment and on the day before finishing treatment. Tests were conducted blindly at a set time during the day. Mice were sacrificed 24 h after administration of the final pridopidine dose, and mitochondria isolated from the striatum.
The final homogenate was then centrifuged at 1,100×g for 2 min, at 4° C. […] The mitochondrial fraction was pelleted by centrifugation at 18,500×g for 10 min at 4° C. The pellet was then resuspended in 1 mL of mitochondria washing buffer (MWB: in mM, 250 sucrose, 5 HEPES-KOH, 0.1 EGTA, pH 7.2) and centrifuged at 10,000×g for 5 min at 4° C. Mitochondrial pellet was again resuspended in a small volume of ice-cold MWB, to create a concentrated mitochondria solution, and kept on ice for further analysis for a maximum of 2 hours. Protein content of isolated mitochondria was quantified by Bio-Rad assay (Bio-Rad, catalog no. 5000006).
After centrifugation, the volume was adjusted to 450 μL and the Seahorse plate was equilibrated in a humidified C02-free incubator at 37° C. for 10-12 min.

[4] = system: isolated YAC128 striatal mitochondria; conditions: wild-type mice, 30 mg/kg/day oral gavage 45 days
Procedure: In isolated mitochondria, H2O2 levels were measured using the Amplex Red-horseradish peroxidase method. […] The homogenate was then dispensed into a 96-multiwell plate and fluorescence was measured in a spectrofluorometer microplate reader by excitation at 570 nm and emission at 585 nm every 30 s, for 20 min. After 10 min of basal reading, mitochondria were challenged with antimycin A (2 μM). Results were analyzed as time-dependent changes in fluorescence.
as §1
The final homogenate was then centrifuged at 1,100×g for 2 min, at 4° C. […] Protein content of isolated mitochondria was quantified by Bio-Rad assay (Bio-Rad, catalog no. 5000006).

[5] = system: eIF2α phosphorylation in HEK 293 cells; conditions: for concentration of maximal effect on reducing eIF2α phosphorylation: cells expressing Htt96Q
Procedure: Transfections of HEK 293 cells were carried out according to the calcium phosphate method. STHdh^Q7/7 cells are a murine striatal cell line with a stable knock-in of the full-length wild type (WT) human Htt containing a polyglutamine stretch of 7 glutamines (Trettel et al. 2000). […] No cell line used is listed as a commonly misidentified cell line. Cell lines were not authenticated. To reduce any risk of cross-contamination they were grown for a limited number of passages. Transient transfections of NIH 3T3 and STHdh^Q7/7 cells were performed using an MP-100 Microporator (Digital Bio) or ViaFect™ Transfection Reagent (Cat.No. E4981) (Promega), according to the manufacturer's protocols.
Cells were lysed in PBS containing 1% Triton X-100, 0.5% sodium deoxycholate with protease inhibitors and centrifuged to pellet insoluble aggregates, debris and nuclei. Phosphatase inhibitor cocktail 2 and 3 and 10 mM […] phosphate were added to the lysis buffer to inhibit phosphatases for detection of phosphorylated proteins. Supernatants were separated from pellets and incubated in loading buffer for 5 min at 100° C., pellets were incubated for 10 min at 100° C. After SDS-PAGE and transfer to nitrocellulose membrane, blocking was done in 5% low-fat milk and 0.1% Tween-20 in PBS for 1 h. Incubation with the primary antibody was overnight at 4° C. and after three washes in 0.1% Tween-20 in PBS, incubation with the appropriate secondary antibody was for 1 h at room temperature. After washing, enhanced chemiluminescence assay was performed and the membrane was exposed and quantified in a Bio-Rad ChemiDocXRS Imaging System (Bio-Rad, Hercules, CA).

[6] = YAC128 striatal neurons, p<0.0001

CCCN1CCC(c2cccc(S(C)(=O)=O)c2)CC1 [Pridopidine, 4-[3-(methylsulfonyl)phenyl]-1-propyl-piperidine]
percent of mitochondrial surface in contact with ER ([1]; WT neurons, p=0.0339): significantly increases the percent of mitochondrial surface in contact with ER
proportion of elongated mitochondria (aspect ratio) ([1]; Y128 striatal neurons, p=0.0044): increases the proportion of elongated mitochondria in Y128 striatal neurons to WT levels
ER width ([1]; YAC128 neurons, p<0.0001): restores the abnormal ER width
number of MERCS per mitochondria [1, 6]: increasing the number of MERCS per mitochondria
percent of mitochondrial surface in contact with ER [1, 6]: increasing the number of MERCS per mitochondria and the percent of mitochondrial surface in contact with ER
maximal respiration ([2]; HD Y128 corticostriatal neurons, 1 μM, p=0.0061): rescues maximal
maximal respiration ([2]; HD Y128 corticostriatal neurons, 5 μM, p=0.002): rescues maximal
ATP production ([2]; HD Y128 corticostriatal neurons, 5 μM, p=0.0358): rescues
basal respiration ([2]; HD Y128 corticostriatal neurons, 1 and 5 μM): non-significant trend towards increasing basal respiration
maximal respiration ([2]; WT cells, 1 and 5 μM): increases maximal respiration in both WT and Y128 cells
mitochondrial basal respiration ([2]; WT neurons, 1 μM, p=0.0058): enhances mitochondrial basal respiration
mitochondrial basal respiration ([2]; WT neurons, 5 μM, p=0.0016): enhances mitochondrial basal respiration
ATP production ([2]; WT neurons, 5 μM, p=0.02): enhances
activity of mitochondrial complex IV (OCR) ([3]; YAC128 mice): shows a similar decreasing trend
activity of mitochondrial complex III ([3]; YAC128 mice, p=0.0084): normalizes the activity of mitochondrial complexes H and III
activity of mitochondrial complex II ([3]; YAC128 mice, p=0.0306): normalizes the activity of mitochondrial complexes H and III
mitochondrial complex activities ([3]; wild-type mice): does not affect mitochondrial complex activities
mitochondrial H2O2 levels [4]: does not affect
reduction of eIF2α-phosphorylation levels compared to the untreated control ([5]; HEK293 cells expressing Htt96Q, 24 h, dose-dependent 0 to 3 μM): 3.6 fold
phosphorylation of eIF2α ([5]; Htt96Q-expressing cells, high doses of 30 and 150 μM): no effect
concentration of maximal effect on reducing eIF2α phosphorylation ([5]; after 8 hours): 3 µM
concentration of maximal effect on reducing eIF2α phosphorylation ([5]; after 24 hours): 3 µM
eIF2α phosphorylation ([5]; cells expressing WT Htt20Q): unaffected by pridopidine treatment
TG-induced ER stress as measured by eIF2α-P ([5]; cells expressing myc-Htt20Q, 2 μg/ml thapsigargin): down to the levels of untreated cells
